Laboratory results as given in PMC7958136, “ANT1 Activation and Inhibition Patterns Support the Fatty Acid Cycling Mechanism for Proton Transport” (International Journal of Molecular Sciences, 2021).
Where two headings read alike, the source gives them in different places.

Molecular target: T1, recombinant murine ANT1 (mANT1; adenine nucleotide translocase 1) (Mus musculus, UniProt P48962)
T1 construct: gene Slc25a4
T1 sequence (P48962 2-298): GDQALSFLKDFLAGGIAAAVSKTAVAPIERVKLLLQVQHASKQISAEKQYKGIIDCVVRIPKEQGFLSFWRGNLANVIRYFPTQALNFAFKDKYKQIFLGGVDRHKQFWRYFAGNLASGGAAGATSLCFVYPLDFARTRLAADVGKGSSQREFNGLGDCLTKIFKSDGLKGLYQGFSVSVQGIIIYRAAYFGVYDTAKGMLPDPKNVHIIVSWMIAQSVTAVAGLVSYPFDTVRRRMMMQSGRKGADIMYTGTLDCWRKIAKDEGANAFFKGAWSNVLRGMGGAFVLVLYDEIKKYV
Assay: inhibition of fatty-acid-activated proton conductance, planar lipid bilayer with reconstituted ANT1
Assay type: biochemical

Structure (SMILES)	EC50 (read-out: EC50)	EC50
Nc1ncnc2c1ncn2[C@@H]1O[C@H](COP(=O)(O)OP(=O)(O)O)[C@@H](O)[C@H]1O [ADP]	1310 ± 537 µM	
Nc1ncnc2c1ncn2[C@@H]1O[C@H](COP(=O)(O)O)[C@@H](O)[C@H]1O [AMP]	2660 ± 817 µM	
Nc1ncnc2c1ncn2[C@@H]1O[C@H](COP(=O)(O)OP(=O)(O)OP(=O)(O)O)[C@@H](O)[C@H]1O [ATP]	250 ± 34 µM	
Nc1nc2c(ncn2[C@@H]2O[C@H](COP(=O)(O)OP(=O)(O)O)[C@@H](O)[C@H]2O)c(=O)[nH]1 [GDP]	5410 ± 2010 µM	
Nc1nc2c(ncn2[C@@H]2O[C@H](COP(=O)(O)OP(=O)(O)OP(=O)(O)O)[C@@H](O)[C@H]2O)c(=O)[nH]1 [GTP]	3320 ± 93 µM	
CO[C@H](C/C=C\C=C\CC/C=C/C[C@H](C)/C=C/C(=C\C(=O)O)CC(=O)O)/C(C)=C\C=C(/C)C(=O)O [bongkrekic acid]		32.3 ± 11.4 µM
